Laboratory results from US7563899B2, “(S)-N-methylnaltrexone” (Progenics Pharmaceuticals, Inc., priority 2005, dated 2009).

Legend:
[1] = target: μ-opioid receptors in the guinea pig ileum (Cavia porcellus, UniProt A0ACM8Q262); experiment: Guinea pig ileum bioassay, test for agonist activity (inhibition of electrically evoked twitch contractions); settings: mean, n=2; for Response to the compound (decrease in twitch contraction amplitude): percent of control response to DAMGO 1.0E−07 M
Procedure: Experimental Conditions. Segments of guinea pig terminal ileum were suspended in 20-ml organ baths filled with an oxygenated (95% O2 and 5% CO2) and pre-warmed (37° C.) physiological salt solution of the following composition (in mM): NaCl 118.0, KCl 4.7, MgSO4 1.2, CaCl2 2.5, KH2PO4 1.2, NaHCO3 25.0 and glucose 11.0 (pH 7.4). Additional experimental conditions were as described in Hutchinson et al. (1975) Brit. J. Pharmacol., 55: 541-546.
Indomethacin (1 μM), nor-binaltorphimine (0.01 μM), methysergide (1 μM), ondansetron (10 μM) and GR113808 (0.1 μM) were also present throughout the experiments to prevent prostanoid release and to block the k-opioid, 5-HT2, 5-HT3 and 5-HT4 receptors, respectively. The tissues were connected to force transducers for isometric tension recordings. They were stretched to a resting tension of 1 g then allowed to equilibrate for 60 min during which time they were washed repeatedly and the tension readjusted. Thereafter, they were stimulated electrically with pulses of minimal intensity to trigger maximal contractions and 1 ms duration, delivered at 0.1 Hz by a constant current stimulator.
Test for agonist activity. […] The different concentrations were added cumulatively and each was left in contact with the tissues until a stable response was obtained or for a maximum of 15 min.
Analysis and Expression of Results. The parameter measured was the maximum change in the amplitude of the electrically-evoked twitch contractions induced by each compound concentration.

[2] = target: T1, human μ (mu, MOP) receptor (Homo sapiens, UniProt P35372); experiment: cAMP assay in CHO cells expressing human mu receptor, agonist assay; format: cell-based
T1 construct: expressed in transfected cells; host or cells: CHO cells

[3] = test system: gastrointestinal transit in rats; experiment: Gastrointestinal transit (charcoal motility) in rats, alone or before morphine; format: in vivo, rat; settings: for Mean Motility: ratio of length of charcoal transit/total intestine length, * p<0.05 vs vehicle
Procedure: F. et al J. Pharmacol. Exptl. Therap. 133: 400-408, 1961; D. E. Gmerek, et al J. Pharmacol. Exptl. Ther. 236: 8-13, 1986; and O. Yamamoto et al Neurogastroenterol. Motil. 10: 523-532, 1998.
A control group of rats received 2 mL/kg of a 0.9% saline solution (n=10). After 15 minutes, rats were subcutaneously injected with saline (1 mL/kg) or morphine (3 mg/kg). A 10% suspension of activated charcoal in 0.25% methylcellulose was administered orally at 10 mL/kg to the rats 20 minutes (±2 minutes) after the subcutaneous dose of morphine or saline. The rats were euthanized 25 minutes (±3 minutes) after receiving the charcoal and the intestines were removed and lightly stretched on moist paper along a meterstick. The small intestine from pyloric sphincter to caecum was measured and the distance traveled by the charcoal as a fraction of that length was evaluated for each rat.
Statistically significant effects were determined by ANOVA with Tukey HSD Multiple Comparison Test. Differences with p values <0.05 were considered statistically significant.
Values for charcoal motility were expressed as a percent effect and were calculated in the following manner: The individual distance traveled by the charcoal in centimeters was divided by the total length of the intestines in centimeters (pyloric sphincter to caecum) for each rat. Mean values were calculated for each group, and the percent effect was calculated using the following formula: […]

[4] = 1 mg/kg sc + Morphine 3 mg/kg sc
[5] = 3 mg/kg sc + Morphine 3 mg/kg sc
[6] = 10 mg/kg sc + Morphine 3 mg/kg sc

T1 sequence (P35372 whole entry): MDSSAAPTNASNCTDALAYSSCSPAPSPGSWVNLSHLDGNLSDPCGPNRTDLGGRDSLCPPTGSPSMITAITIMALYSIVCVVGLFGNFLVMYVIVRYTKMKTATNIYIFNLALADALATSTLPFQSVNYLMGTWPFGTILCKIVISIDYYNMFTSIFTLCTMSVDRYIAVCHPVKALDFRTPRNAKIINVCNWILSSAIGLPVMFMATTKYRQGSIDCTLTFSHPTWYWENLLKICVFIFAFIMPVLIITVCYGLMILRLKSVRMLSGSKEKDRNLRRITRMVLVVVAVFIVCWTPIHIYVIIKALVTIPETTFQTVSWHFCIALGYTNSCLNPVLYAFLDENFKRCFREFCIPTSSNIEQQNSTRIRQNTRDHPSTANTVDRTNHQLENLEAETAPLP
μ-opioid receptors in the guinea pig ileum, sequence (A0ACM8Q262 1-400): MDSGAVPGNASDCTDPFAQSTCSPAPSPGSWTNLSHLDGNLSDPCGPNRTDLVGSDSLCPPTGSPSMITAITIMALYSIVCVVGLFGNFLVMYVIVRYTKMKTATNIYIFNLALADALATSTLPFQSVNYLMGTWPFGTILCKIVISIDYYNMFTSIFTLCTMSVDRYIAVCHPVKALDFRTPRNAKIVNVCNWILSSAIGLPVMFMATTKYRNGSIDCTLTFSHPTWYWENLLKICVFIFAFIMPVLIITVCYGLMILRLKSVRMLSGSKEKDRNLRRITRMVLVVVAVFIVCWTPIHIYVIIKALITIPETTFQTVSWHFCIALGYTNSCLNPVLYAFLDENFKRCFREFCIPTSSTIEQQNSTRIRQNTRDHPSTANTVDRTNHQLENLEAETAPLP

For `C[C@@H](NC(=O)[C@@H](N)Cc1ccc(O)cc1)C(=O)NCC(=O)N(C)[C@@H](Cc1ccccc1)C(=O)NCCO` [DAMGO, reference compound], the “Response to the compound (decrease in twitch contraction amplitude)” value ([1]; 1.0E−07 M) was 99%, the “Response to the compound (decrease in twitch contraction amplitude)” value ([1]; 1.0E−08 M) was 49% and the “Response to the compound (decrease in twitch contraction amplitude)” value ([1]; 1.0E−09 M) was 12%. The “Response to the compound +naloxone” value ([1]; compound 1.0E−07 M + naloxone 1.0E−07 M, percent of control response to DAMGO) was 3%, the “cAMP agonist assay value (Table IX.1)” value ([2]; log{M} conc −4.0) was −1 and the “cAMP agonist assay value (Table IX.1)” value ([2]; log{M} conc −5.0) was 2. For the same molecule, the “cAMP agonist assay value (Table IX.1)” value ([2]; log{M} conc −6.0) was 1, the “cAMP agonist assay value (Table IX.1)” value ([2]; log{M} conc −7.0) was 2 and the “cAMP agonist assay value (Table IX.1)” value ([2]; log{M} conc −8.0) was 68. The “cAMP agonist assay value (Table IX.1)” value ([2]; log{M} conc −9.0) was 63, the “cAMP agonist assay value (Table IX.1)” value ([2]; log{M} conc −10.0) was 88 and the “cAMP agonist assay value (Table IX.1)” value ([2]; log{M} conc −11.0) was 105.

`CN1CC[C@]23c4c5ccc(O)c4O[C@H]2[C@@H](O)C=C[C@H]3[C@H]1C5` [Morphine, morphine] was tested, and the “Percent Decrease” value ([3]; Saline + Morphine 3 mg/kg sc) was 33%, the “Mean Motility” value ([3]; Saline + Morphine 3 mg/kg sc) was 0.407* and the “effect on GI transit when administered alone” value ([3]; rats, sc) was “decreased GI motility”.

For `C[N+]1(CC2CC2)CC[C@]23c4c5ccc(O)c4O[C@H]2C(=O)CC[C@@]3(O)[C@H]1C5` (stereo partly drawn) [R-MNTX, (R)-N-methylnaltrexone], the “Percent Decrease” value [3, 4] was 24%, the “Mean Motility” value [3, 4] was 0.463* and the “Percent Decrease” value [3, 5] was 8%. The “Mean Motility” value [3, 5] was 0.558, the “Percent Decrease” value [3, 6] was 8% and the “Mean Motility” value [3, 6] was 0.557. The “Percent Decrease” value ([3]; 10 mg/kg sc + Saline) was 6%, the “Mean Motility” value ([3]; 10 mg/kg sc + Saline) was 0.572 and the “effect on GI transit in combination with / prior to morphine” value ([3]; rats, sc, 15 minutes before morphine 3 mg/kg) was “reversed the GI slowing effect of morphine”. For the same molecule, the “effect on GI transit when administered alone” value ([3]; rats, sc) was “no effect on GI transit”.
